Test results reported in US12304912B2, “Fused bicyclic RAF inhibitors and methods for use thereof” (Jazz Pharmaceuticals Ireland Limited, priority 2020, dated 2025).
≈ marks a conversion by molar mass, not a printed value. Where two headings read alike, the source gives them in different places.

How the values were obtained:
WiDr cells = assay: WiDr CellTiter-Glo 3D cell proliferation assay; assay type: cell-based; settings: Homo sapiens; WiDr cells, 3D proliferation; read-out: 3D WiDr pGI50 (converted)
HCT-116 cells = assay: HCT-116 CellTiter-Glo 3D cell proliferation assay; assay type: cell-based; settings: Homo sapiens, HCT-116; HCT116 cells, 3D proliferation; read-out: 3D HCT116 pGI50 (converted)
Method: HCT-116 CellTiter-Glo 3D Cell Proliferation Assay
The human HCT-116 colorectal carcinoma cell line (ATCC CCL-247) endogenously expresses the KRAS^G13D mutation, which leads to enhanced survival and proliferative signaling. […] On the first day, HCT-116 cells were harvested, resuspended in growth medium (McCoys5A with Glutamax (Life Technologies 36600021) with 10% heat-inactivated fetal bovine serum (Sigma F9665)), and counted. Cells were plated in 100 μl per well in each well of a Corning 7007 96-well clear round bottom Ultra-Low Attachment plate (VWR 444-1020) to a final density of 1000 cells per well. Cells were seeded for pre- and post-treatment readouts. The cells were then incubated at 37° C. and 5% CO2 for 3 days (72 hours) to allow spheroid formation. After 72 hours, the plate seeded for a pre-treatment read was removed from the incubator to allow equilibration to room temperature for 30 minutes, before CellTitre-Glo® reagent was added to each well. The plates were incubated at room temperature for 5 minutes shaking at 300 rpm, followed by an incubation of 25 minutes on the benchtop before being read on the Envision reader (Perkin Elmer) as described below. On the same day, the cells plated for the post-treatment readout were dosed with compounds to produce a 9-point dose response, where the top concentration was 15 μM and following concentrations were at 1/2 log dilution intervals. These cells were subsequently incubated at 37° C. and 5% CO2 for another 4 days (96 hours). After 4 days, the plate was removed from the incubator to allow equilibration to room temperature for 30 minutes and treated with CellTitre Glo® reagent as stated above. […] The CellTitre Glo® reagent lyses the cells and contains luciferin and a luciferase (Ultra-Glo™ Recombinant Luciferase), which in the presence of ATP and oxygen can produce bioluminescence from luciferin. Therefore, plates were read on an EnVision reader (Perkin Elmer) and luminescence signals were recorded. Cell proliferation was determined on 4 days after dosing relative to the pre-treatment read. All data were analyzed using the Dotmatics or GraphPad Prism software packages. Inhibition of proliferation was assessed by determination of the GI50 value, which was defined as the concentration of compound required to decrease the level of cell proliferation by 50% when compared to DMSO control.

[1] = Plasma protein binding assay, mouse plasma (mPPB); assay type: in vitro ADME; settings: 5 μM
In short: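 Equilibrium dialysis of 5 μM compound in previously frozen human or mouse plasma against phosphate buffer, 4 h at 37 °C. Both chambers quantified by LC-MS/MS; % free = (1−((PC−PF)/PC))×100.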

[2] = Microsomal stability assay, human liver microsomes (HLM); assay type: in vitro ADME; settings: 0.5 mg/mL protein, 1 μM substrate
In short: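 Substrate depletion: 1 μM compound incubated at 37° C. with cryopreserved mouse or human liver microsomes at 0.5 mg·mL^−1 protein. Timed aliquots quenched in ice-cold organic solvent and measured by LC-MS/MS; t1/2 and CLint derived from the slope of ln % remaining versus time.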

FeSSIF solubility assay = assay type: physicochemical; settings: pH 5 acetate buffer, 37° C.; for solubility thermodynamic at 24 h: fed state simulated intestinal fluid (FeSSIF), thermodynamic from solid
In short: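 FeSSIF (pH 5 acetate buffer, 1 mL) was added to 1.0 mg solid compound and shaken at 650 rpm and 37 °C for 24 h. After filtration, dissolved compound was quantified by LC-UV against a 250 μM calibration standard.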

[3] = equilibrium dialysis 4 hours at 37° C.

Compound	GI50 (WiDr cells) [nM]	GI50 (HCT-116 cells) [nM]	mPPB (% free) [1, 3] [% free]	microsomal CLint at 1 μM ([2]; 37° C.) [µL/min/mg]	solubility thermodynamic at 24 h (FeSSIF solubility assay; read-out: FESSIF Sol) [µg/mL]	mPPB (% free) ([1]; equilibrium dialysis 4 hours 37° C.)	microsomal CLint at 1 μM [2] [µL/min/mg]	solubility thermodynamic at 24 h (FeSSIF solubility assay; read-out: Sol (FESSIF)) [µg/mL]	FESSIF Sol (FeSSIF solubility assay; 24 h) [mg/L]	HLM (CLint) ([2]; 37° C.) [µL/min/mg]
O=C(Nc1cc(Oc2ccc3c(c2)CC(c2nc(-c4ccccc4)c[nH]2)CO3)ccn1)C1CC1 (racemic) [Compound 136]	170	47.9	0.2	58.1	17.1 (≈ 37.8 µM)	–	–	–	–	–
O=C1CCc2c(Oc3ccc4c(c3)CC(c3nc(-c5ccnc(C(F)(F)F)c5)c[nH]3)CO4)ccnc2N1 (stereo not drawn) [Compound 8, 5-[3-[4-[2-(trifluoromethyl)-4-pyridyl]-1H-imidazol-2-yl]chroman-6-yl]oxy-3,4-dihydro-1H-1,8-naphthyridin-2-one]	191	138	1.1	–	–	1.1	36	18.5 (≈ 36.5 µM)	18.5	–
O=C1CCc2c(Oc3ccc4c(c3)CC(c3nc(-c5ccnc(C(F)F)c5)c[nH]3)CO4)ccnc2N1 (stereo not drawn) [Compound 101, 5-[3-[4-[2-(difluoromethyl)-4-pyridyl]-1H-imidazol-2-yl]chroman-6-yl]oxy-3,4-dihydro-1H-1,8-naphthyridin-2-one]	309	85.1	1.1	29.6	5.7 (≈ 11.6 µM)	–	–	–	–	–
O=C1CCc2c(Oc3ccc4c(c3)CC(c3nc(-c5cncc(C(F)(F)F)c5)c[nH]3)CO4)ccnc2N1 (stereo not drawn) [Compound 103, 5-[3-[4-[5-(trifluoromethyl)-3-pyridyl]-1H-imidazol-2-yl]chroman-6-yl]oxy-3,4-dihydro-1H-1,8-naphthyridin-2-one]	537	288	0.6	11.6	5.2 (≈ 10.2 µM)	–	–	–	–	–
COc1cc(-c2c[nH]c(C3COc4ccc(Oc5ccnc6c5CCC(=O)N6)cc4C3)n2)ccn1 (stereo not drawn) [Compound 104]	1150	447	1.5	–	–	–	–	–	–	27.8
O=C1CCc2c(Oc3ccc4c(c3)CC(c3nc(-c5cncc(C(F)F)c5)c[nH]3)CO4)ccnc2N1 (stereo not drawn) [Compound 105, 5-[3-[4-[5-(difluoromethyl)-3-pyridyl]-1H-imidazol-2-yl]chroman-6-yl]oxy-3,4-dihydro-1H-1,8-naphthyridin-2-one]	603	245	0.86	24.8	8.6 (≈ 17.6 µM)	–	–	–	–	–
Cc1cc(-c2c[nH]c(C3COc4ccc(Oc5ccnc6c5CCC(=O)N6)cc4C3)n2)n(C)n1 (stereo not drawn) [Compound 106, 5-[3-[4-(2,5-dimethylpyrazol-3-yl)-1H-imidazol-2-yl]chroman-6-yl]oxy-3,4-dihydro-1H-1,8-naphthyridin-2-one]	1550	437	3.0	10.5	28.1 (≈ 61.6 µM)	–	–	–	–	–
Cn1nc(C(F)(F)F)cc1-c1c[nH]c(C2COc3ccc(Oc4ccnc5c4CCC(=O)N5)cc3C2)n1 (stereo not drawn) [Compound 107, 5-[3-[4-[2-methyl-5-(trifluoromethyl)pyrazol-3-yl]-1H-imidazol-2-yl]chroman-6-yl]oxy-3,4-dihydro-1H-1,8-naphthyridin-2-one]	776	229	0.3	30.3	–	–	–	–	–	–
Cc1ccc(-c2c[nH]c(C3COc4ccc(Oc5ccnc6c5CCC(=O)N6)cc4C3)n2)s1 (stereo not drawn) [Compound 110]	200	70.8	0.1	48.3	8.5 (≈ 18.5 µM)	–	–	–	–	–
CCc1cc(-c2c[nH]c(C3COc4ccc(Oc5ccnc6c5CCC(=O)N6)cc4C3)n2)n(C)n1 (stereo not drawn) [Compound 111]	1020	316	1.73	48.1	70 (≈ 149 µM)	–	–	–	–	–
CC(C)(C)CCc1c[nH]c(C2COc3ccc(Oc4ccnc5c4CCC(=O)N5)cc3C2)n1 (stereo not drawn) [Compound 115, 5-[3-[4-(3,3-dimethylbutyl)-1H-imidazol-2-yl]chroman-6-yl]oxy-3,4-dihydro-1H-1,8-naphthyridin-2-one]	38	67.6	0.3	277	129 (≈ 289 µM)	–	–	–	–	–
CCc1cc(-c2c[nH]c(C3COc4ccc(Oc5ccnc6c5CCC(=O)N6)cc4C3)n2)ccn1 (stereo not drawn) [Compound 118, 5-[3-[4-(2-ethyl-4-pyridyl)-1H-imidazol-2-yl]chroman-6-yl]oxy-3,4-dihydro-1H-1,8-naphthyridin-2-one]	1170	398	1.0	81.2	–	–	–	–	–	–
Cn1nc(C2CC2)cc1-c1c[nH]c(C2COc3ccc(Oc4ccnc5c4CCC(=O)N5)cc3C2)n1 (stereo not drawn) [Compound 125, 5-[3-[4-(5-cyclopropyl-2-methyl-pyrazol-3-yl)-1H-imidazol-2-yl]chroman-6-yl]oxy-3,4-dihydro-1H-1,8-naphthyridin-2-one]	15100	1120	–	–	22 (≈ 45.6 µM)	–	–	–	–	–
Cn1ncc2ccc(-c3c[nH]c(C4COc5ccc(Oc6ccnc7c6CCC(=O)N7)cc5C4)n3)cc21 (stereo not drawn) [Compound 130, 5-[3-[4-(1-methylindazol-6-yl)-1H-imidazol-2-yl]chroman-6-yl]oxy-3,4-dihydro-1H-1,8-naphthyridin-2-one]	1660	617	0.2	23.6	–	–	–	–	–	–
O=C1CCc2c(Oc3ccc4c(c3)CC(c3nc5ccncc5[nH]3)CO4)ccnc2N1 (stereo not drawn) [Compound 134, 5-[3-(3H-imidazo[4,5-c]pyridin-2-yl)chroman-6-yl]oxy-3,4-dihydro-1H-1,8-naphthyridin-2-one]	25700	15100	9.5	13.6	–	–	–	–	–	–
c1ccc(-c2c[nH]c(C3COc4ccc(Oc5ccnc(Nc6ccccn6)c5)cc4C3)n2)cc1 (stereo not drawn) [Compound 140, 4-[3-(4-phenyl-1H-imidazol-2-yl)chroman-6-yl]oxy-N-(2-pyridyl)pyridin-2-amine]	1910	1320	0.2	48.7	–	–	–	–	–	–
O=C(CN1CC[C@@H](O)C1)Nc1cc(Oc2ccc3c(c2)CC(c2nc(-c4ccccc4)c[nH]2)CO3)ccn1 (stereo partly drawn) [Compound 145]	6310	479	0.53	57.2	–	–	–	–	–	–
